# Test results from patent US5843889A, “Glycopeptide antibiotic derivatives” (Eli Lilly and Company, priority 1997, dated 1998).
# Tests used:
# Assay in all cases: MIC, standard broth micro-dilution assay
# Type in all cases: cell-based
# Entercoccus faecalis 276 = test system: Entercoccus faecalis 276
# Procedure: (§1) The formula I compounds have in vitro and in vivo activity against Gram-positive pathogenic bacteria. The MIC's were determined using a standard broth micro-dilution assay.
# [1] = test system: Entercoccus gallinarum 245
# Procedure: as §1
# [2] = test system: Entercoccus faecalis 2041
# Procedure: as §1
SMILES,MIC (Entercoccus faecalis 276),MIC [1],MIC [2]
"CNC(CC(C)C)C(=O)NC1C(=O)NC(CC(N)=O)C(=O)NC2C(=O)NC3C(=O)NC(C(=O)NC(C(=O)O)c4cc(O)cc(O)c4-c4cc3ccc4O)C(OC3CC(C)(N)C(O)C(C)O3)c3ccc(c(Cl)c3)Oc3cc2cc(c3OC2OC(CO)C(O)C(O)C2OC2CC(C)(NCc3ccc(C)c(C)c3)C(O)C(C)O2)Oc2ccc(cc2Cl)C1O (stereo not drawn) [Compound 76, 3,4-dimethylbenzyl]",≤ 0.06 mg/L,4 mg/L,≤ 0.06 mg/L
"CNC(CC(C)C)C(=O)NC1C(=O)NC(CC(N)=O)C(=O)NC2C(=O)NC3C(=O)NC(C(=O)NC(C(=O)O)c4cc(O)cc(O)c4-c4cc3ccc4O)C(OC3CC(C)(N)C(O)C(C)O3)c3ccc(c(Cl)c3)Oc3cc2cc(c3OC2OC(CO)C(O)C(O)C2OC2CC(C)(NCc3cccc4ccccc34)C(O)C(C)O2)Oc2ccc(cc2Cl)C1O (stereo not drawn) [Compound 3, 1-naphthylmethyl]",≤ 0.06 mg/L,≤ 0.06 mg/L,≤ 0.06 mg/L
"CNC(CC(C)C)C(=O)NC1C(=O)NC(CC(N)=O)C(=O)NC2C(=O)NC3C(=O)NC(C(=O)NC(C(=O)O)c4cc(O)cc(O)c4-c4cc3ccc4O)C(OC3CC(C)(N)C(O)C(C)O3)c3ccc(c(Cl)c3)Oc3cc2cc(c3OC2OC(CO)C(O)C(O)C2OC2CC(C)(NCc3cc4ccccc4c4ccccc34)C(O)C(C)O2)Oc2ccc(cc2Cl)C1O (stereo not drawn) [Compound 11, 9-phenanthranylmethyl]",1 mg/L,≤ 0.06 mg/L,0.5 mg/L
"CNC(CC(C)C)C(=O)NC1C(=O)NC(CC(N)=O)C(=O)NC2C(=O)NC3C(=O)NC(C(=O)NC(C(=O)O)c4cc(O)cc(O)c4-c4cc3ccc4O)C(OC3CC(C)(N)C(O)C(C)O3)c3ccc(c(Cl)c3)Oc3cc2cc(c3OC2OC(CO)C(O)C(O)C2OC2CC(C)(NCc3ccc4ccccc4n3)C(O)C(C)O2)Oc2ccc(cc2Cl)C1O (stereo not drawn) [Compound 30, 2-quinolylmethyl]",0.25 mg/L,≤ 0.06 mg/L,≤ 0.06 mg/L
"CNC(CC(C)C)C(=O)NC1C(=O)NC(CC(N)=O)C(=O)NC2C(=O)NC3C(=O)NC(C(=O)NC(C(=O)O)c4cc(O)cc(O)c4-c4cc3ccc4O)C(OC3CC(C)(N)C(O)C(C)O3)c3ccc(c(Cl)c3)Oc3cc2cc(c3OC2OC(CO)C(O)C(O)C2OC2CC(C)(NCc3cccc(OCC4CCCCC4)c3)C(O)C(C)O2)Oc2ccc(cc2Cl)C1O (stereo not drawn) [Compound 123, 3-[cyclohexylmethoxy]benzyl]",0.25 mg/L,1 mg/L,≤ 0.06 mg/L
"CCCCCc1ccc(-c2ccc(CNC3(C)CC(OC4C(Oc5c6cc7cc5Oc5ccc(cc5Cl)C(OC5CC(C)(N)C(O)C(C)O5)C5NC(=O)C(NC(=O)C7NC(=O)C(CC(N)=O)NC(=O)C(NC(=O)C(CC(C)C)NC)C(O)c7ccc(c(Cl)c7)O6)c6ccc(O)c(c6)-c6c(O)cc(O)cc6C(C(=O)O)NC5=O)OC(CO)C(O)C4O)OC(C)C3O)cc2)cc1 (stereo not drawn) [Compound 22, 4-[4-pentylphenyl]benzyl]",4 mg/L,1 mg/L,2 mg/L
"CNC(CC(C)C)C(=O)NC1C(=O)NC(CC(N)=O)C(=O)NC2C(=O)NC3C(=O)NC(C(=O)NC(C(=O)O)c4cc(O)cc(O)c4-c4cc3ccc4O)C(OC3CC(C)(N)C(O)C(C)O3)c3ccc(c(Cl)c3)Oc3cc2cc(c3OC2OC(CO)C(O)C(O)C2OC2CC(C)(NCc3ccc(OC(F)(F)C(F)F)cc3)C(O)C(C)O2)Oc2ccc(cc2Cl)C1O (stereo not drawn) [Compound 121, 4-[1,1,2,2-tetrafluoroethoxy]benzyl]",≤ 0.06 mg/L,2 mg/L,≤ 0.06 mg/L
"CNC(CC(C)C)C(=O)NC1C(=O)NC(CC(N)=O)C(=O)NC2C(=O)NC3C(=O)NC(C(=O)NC(C(=O)O)c4cc(O)cc(O)c4-c4cc3ccc4O)C(OC3CC(C)(N)C(O)C(C)O3)c3ccc(c(Cl)c3)Oc3cc2cc(c3OC2OC(CO)C(O)C(O)C2OC2CC(C)(NCc3cc(C)cc(C)c3)C(O)C(C)O2)Oc2ccc(cc2Cl)C1O (stereo not drawn) [Compound 89, 3,5-dimethylbenzyl]",≤ 0.06 mg/L,≤ 0.06 mg/L,≤ 0.06 mg/L
"CNC(CC(C)C)C(=O)NC1C(=O)NC(CC(N)=O)C(=O)NC2C(=O)NC3C(=O)NC(C(=O)NC(C(=O)O)c4cc(O)cc(O)c4-c4cc3ccc4O)C(OC3CC(C)(N)C(O)C(C)O3)c3ccc(c(Cl)c3)Oc3cc2cc(c3OC2OC(CO)C(O)C(O)C2OC2CC(C)(NCc3ccc(OC(F)F)cc3)C(O)C(C)O2)Oc2ccc(cc2Cl)C1O (stereo not drawn) [Compound 72, 4-difluormethoxybenzyl]",≤ 0.06 mg/L,4 mg/L,≤ 0.06 mg/L
"CNC(CC(C)C)C(=O)NC1C(=O)NC(CC(N)=O)C(=O)NC2C(=O)NC3C(=O)NC(C(=O)NC(C(=O)O)c4cc(O)cc(O)c4-c4cc3ccc4O)C(OC3CC(C)(N)C(O)C(C)O3)c3ccc(c(Cl)c3)Oc3cc2cc(c3OC2OC(CO)C(O)C(O)C2OC2CC(C)(NCc3ccc4cc(OC)ccc4c3)C(O)C(C)O2)Oc2ccc(cc2Cl)C1O (stereo not drawn) [Compound 65, 6-methoxy-2-naphthylmethyl]",0.5 mg/L,4 mg/L,≤ 0.06 mg/L
"CCCOC(c1ccccc1)c1ccc(CNC2(C)CC(OC3C(Oc4c5cc6cc4Oc4ccc(cc4Cl)C(OC4CC(C)(N)C(O)C(C)O4)C4NC(=O)C(NC(=O)C6NC(=O)C(CC(N)=O)NC(=O)C(NC(=O)C(CC(C)C)NC)C(O)c6ccc(c(Cl)c6)O5)c5ccc(O)c(c5)-c5c(O)cc(O)cc5C(C(=O)O)NC4=O)OC(CO)C(O)C3O)OC(C)C2O)cc1 (stereo not drawn) [Compound 128, 4-[alpha-propoxybenzyl]benzyl]",1 mg/L,2 mg/L,0.5 mg/L

# Other lines, results leading:
MIC (Entercoccus faecalis 276),MIC [1],MIC [2],SMILES
4 mg/L,8 mg/L,1 mg/L,"CCCCCCCCCCC#CCNC1(C)CC(OC2C(Oc3c4cc5cc3Oc3ccc(cc3Cl)C(OC3CC(C)(N)C(O)C(C)O3)C3NC(=O)C(NC(=O)C5NC(=O)C(CC(N)=O)NC(=O)C(NC(=O)C(CC(C)C)NC)C(O)c5ccc(c(Cl)c5)O4)c4ccc(O)c(c4)-c4c(O)cc(O)cc4C(C(=O)O)NC3=O)OC(CO)C(O)C2O)OC(C)C1O (stereo not drawn) [Compound 191, 2-tridecynyl]"
1 mg/L,2 mg/L,≤ 0.06 mg/L,"CNC(CC(C)C)C(=O)NC1C(=O)NC(CC(N)=O)C(=O)NC2C(=O)NC3C(=O)NC(C(=O)NC(C(=O)O)c4cc(O)cc(O)c4-c4cc3ccc4O)C(OC3CC(C)(N)C(O)C(C)O3)c3ccc(c(Cl)c3)Oc3cc2cc(c3OC2OC(CO)C(O)C(O)C2OC2CC(C)(NCc3ccc(OC(=O)c4ccccc4)cc3)C(O)C(C)O2)Oc2ccc(cc2Cl)C1O (stereo not drawn) [Compound 150, 4-benzoyloxybenzyl]"
≤ 0.06 mg/L,1 mg/L,≤ 0.06 mg/L,"CNC(CC(C)C)C(=O)NC1C(=O)NC(CC(N)=O)C(=O)NC2C(=O)NC3C(=O)NC(C(=O)NC(C(=O)O)c4cc(O)cc(O)c4-c4cc3ccc4O)C(OC3CC(C)(N)C(O)C(C)O3)c3ccc(c(Cl)c3)Oc3cc2cc(c3OC2OC(CO)C(O)C(O)C2OC2CC(C)(NCc3ccc(-c4ccc(C)cc4)cc3C)C(O)C(C)O2)Oc2ccc(cc2Cl)C1O (stereo not drawn) [Compound 222, 4-[4-methylphenyl]-2-methylbenzyl]"
0.5 mg/L,2 mg/L,≤ 0.06 mg/L,"CNC(CC(C)C)C(=O)NC1C(=O)NC(CC(N)=O)C(=O)NC2C(=O)NC3C(=O)NC(C(=O)NC(C(=O)O)c4cc(O)cc(O)c4-c4cc3ccc4O)C(OC3CC(C)(N)C(O)C(C)O3)c3ccc(c(Cl)c3)Oc3cc2cc(c3OC2OC(CO)C(O)C(O)C2OC2CC(C)(NCc3ccc(N(C)c4ccccc4)cc3)C(O)C(C)O2)Oc2ccc(cc2Cl)C1O (stereo not drawn) [Compound 178, 4-[N-methylanilino]benzyl]"
8 mg/L,32 mg/L,2 mg/L,"CCCCCCCC#Cc1ccc(CN[C@@]2(C)C[C@H](O[C@H]3[C@H](Oc4c5cc6cc4Oc4ccc(cc4Cl)[C@@H](O[C@H]4C[C@](C)(N)[C@@H](O)[C@H](C)O4)[C@@H]4NC(=O)[C@H](NC(=O)[C@@H]6NC(=O)[C@H](CC(N)=O)NC(=O)[C@H](NC(=O)[C@@H](CC(C)C)NC)[C@H](O)c6ccc(c(Cl)c6)O5)c5ccc(O)c(c5)-c5c(O)cc(O)cc5[C@@H](C(=O)O)NC4=O)O[C@H](CO)[C@@H](O)[C@@H]3O)O[C@@H](C)[C@@H]2O)cc1 [Compound 232, 4-[1-nonynyl]benzyl]"
≤ 0.06 mg/L,1 mg/L,≤ 0.06 mg/L,"CNC(CC(C)C)C(=O)NC1C(=O)NC(CC(N)=O)C(=O)NC2C(=O)NC3C(=O)NC(C(=O)NC(C(=O)O)c4cc(O)cc(O)c4-c4cc3ccc4O)C(OC3CC(C)(N)C(O)C(C)O3)c3ccc(c(Cl)c3)Oc3cc2cc(c3OC2OC(CO)C(O)C(O)C2OC2CC(C)(NCc3ccc(N=Nc4ccccc4)cc3)C(O)C(C)O2)Oc2ccc(cc2Cl)C1O (stereo not drawn) [Compound 210, 4-[phenylazo]benzyl]"
≤ 0.06 mg/L,4 mg/L,≤ 0.06 mg/L,"CNC(CC(C)C)C(=O)NC1C(=O)NC(CC(N)=O)C(=O)NC2C(=O)NC3C(=O)NC(C(=O)NC(C(=O)O)c4cc(O)cc(O)c4-c4cc3ccc4O)C(OC3CC(C)(N)C(O)C(C)O3)c3ccc(c(Cl)c3)Oc3cc2cc(c3OC2OC(CO)C(O)C(O)C2OC2CC(C)(NCc3ccc(O)cc3)C(O)C(C)O2)Oc2ccc(cc2Cl)C1O (stereo not drawn) [Compound 136, 4-hydroxybenzyl]"
0.5 mg/L,4 mg/L,0.25 mg/L,"CCCCCC#Cc1ccc(CNC2(C)CC(OC3C(Oc4c5cc6cc4Oc4ccc(cc4Cl)C(OC4CC(C)(N)C(O)C(C)O4)C4NC(=O)C(NC(=O)C6NC(=O)C(CC(N)=O)NC(=O)C(NC(=O)C(CC(C)C)NC)C(O)c6ccc(c(Cl)c6)O5)c5ccc(O)c(c5)-c5c(O)cc(O)cc5C(C(=O)O)NC4=O)OC(CO)C(O)C3O)OC(C)C2O)cc1 (stereo not drawn) [Compound 227, 4-[1-heptynyl]benzyl]"
2 mg/L,2 mg/L,0.5 mg/L,"CNC(CC(C)C)C(=O)NC1C(=O)NC(CC(N)=O)C(=O)NC2C(=O)NC3C(=O)NC(C(=O)NC(C(=O)O)c4cc(O)cc(O)c4-c4cc3ccc4O)C(OC3CC(C)(N)C(O)C(C)O3)c3ccc(c(Cl)c3)Oc3cc2cc(c3OC2OC(CO)C(O)C(O)C2OC2CC(C)(NCc3c4c(cc5ccccc35)CCCC4)C(O)C(C)O2)Oc2ccc(cc2Cl)C1O (stereo not drawn) [Compound 156, 1,2,3,4,-tetrahydro-9-anthranylmethyl]"
